These results are taken from ChEMBL document CHEMBL1128018, “Structure-activity relationships of the non-peptidyl growth hormone secretagogue L-692,429” (1994).

The first assay is filed under the species Rattus norvegicus. The assay is described as follows: Growth hormone release was determined in rat pituitary cells at 1 uM; A - weakly active. Type of assay: functional, cell-based. To be noted: Pituitary gland cell.
Regarding `C[C@H](O)CCNC(C)(C)CC(=O)N[C@@H]1CCc2ccccc2N(Cc2ccc(-c3ccccc3-c3nn[nH]n3)cc2)C1=O`, the “Growth hormone release activity call at 1 uM” value is “Weak activity”. Take `CC(C)(CC(=O)N[C@@H]1CCc2ccccc2N(Cc2ccc(-c3ccccc3-c3nn[nH]n3)cc2)C1=O)NCCOCc1ccccc1`: the “Growth hormone release activity call at 1 uM” value is “Weak activity”.

As for `C[C@H](CNC(C)(C)CC(=O)N[C@@H]1CCc2ccccc2N(Cc2ccc(-c3ccccc3-c3nn[nH]n3)cc2)C1=O)OCc1ccccc1`, the “Growth hormone release activity call at 1 uM” value is “Weak activity”.

For `CC(C)(CC(=O)N[C@@H]1CCc2ccccc2N(Cc2ccc(-c3ccccc3-c3nn[nH]n3)cc2)C1=O)NCC(=O)O`, the “Growth hormone release activity call at 1 uM” value was “Weak activity”.

The next assay is filed under the species Rattus norvegicus. The assay can be described thus: Growth hormone release from rat pituitary cells. The class given is functional. Conditions: Pituitary gland cell, read-out: ED50 (the source's name).
With `CC(C)[C@@H](O)CNC(C)(C)CC(=O)N[C@@H]1CCc2ccccc2N(Cc2ccc(-c3ccccc3-c3nn[nH]n3)cc2)C1=O`, the EC50 is 200 nM.

As to `C[C@@H](O)CNC(C)(C)CC(=O)N[C@@H]1CCc2ccccc2N(Cc2ccc(-c3ccccc3-c3nn[nH]n3)cc2)C1=O` [L-692585], the EC50 is 3 nM. Turning to `CC(C)(CC(=O)N[C@@H]1CCc2ccccc2N(Cc2ccc(-c3ccccc3-c3nn[nH]n3)cc2)C1=O)NC[C@H](O)[C@@H](O)CO`, the EC50 came to 40 nM. Turning to `CC(C)(CC(=O)N[C@@H]1CCc2ccccc2N(Cc2ccc(-c3ccccc3-c3nn[nH]n3)cc2)C1=O)NC[C@H](O)CO`, the EC50 came out at 10 nM. Regarding `CCCNC(C)(C)CC(=O)N[C@@H]1CCc2ccccc2N(Cc2ccc(-c3ccccc3-c3nn[nH]n3)cc2)C1=O`, the EC50 worked out at 50 nM. On the same count and under the same terms, for `C[C@@H](O)CCNC(C)(C)CC(=O)N[C@@H]1CCc2ccccc2N(Cc2ccc(-c3ccccc3-c3nn[nH]n3)cc2)C1=O` the value was 10 nM. Turning to `CO[C@H](C)CNC(C)(C)CC(=O)N[C@@H]1CCc2ccccc2N(Cc2ccc(-c3ccccc3-c3nn[nH]n3)cc2)C1=O`, the EC50 stood at 20 nM. Regarding `C[C@H](O)CCNC(C)(C)C(=O)N[C@@H]1CCc2ccccc2N(Cc2ccc(-c3ccccc3-c3nn[nH]n3)cc2)C1=O`, the EC50 was 50 nM. Regarding `C[C@@H](O)CCNC(C)(C)C(=O)N[C@@H]1CCc2ccccc2N(Cc2ccc(-c3ccccc3-c3nn[nH]n3)cc2)C1=O`, the EC50 came out at 100 nM. For the compound `C[C@H](O)CNC(C)(C)CC(=O)N[C@@H]1CCc2ccccc2N(Cc2ccc(-c3ccccc3-c3nn[nH]n3)cc2)C1=O`, the EC50 turned out to be 7 nM. The same measure, in the same setting: for `CC(=O)O[C@@H](C)CNC(C)(C)CC(=O)N[C@@H]1CCc2ccccc2N(Cc2ccc(-c3ccccc3-c3nn[nH]n3)cc2)C1=O` the value was 200 nM; for `C[C@@H](O)CNC(C)(C)C(=O)N[C@@H]1CCc2ccccc2N(Cc2ccc(-c3ccccc3-c3nn[nH]n3)cc2)C1=O`, 300 nM. In the case of `CC(C)(O)CNC(C)(C)CC(=O)N[C@@H]1CCc2ccccc2N(Cc2ccc(-c3ccccc3-c3nn[nH]n3)cc2)C1=O`, the EC50 is 10 nM. Same read-out and setting: next, `CCOC(=O)CNC(C)(C)CC(=O)N[C@@H]1CCc2ccccc2N(Cc2ccc(-c3ccccc3-c3nn[nH]n3)cc2)C1=O`: 56 nM.

Consider `CC(C)(N)CC(=O)N[C@@H]1CCc2ccccc2N(Cc2ccc(-c3ccccc3-c3nn[nH]n3)cc2)C1=O`, for which the EC50 turned out to be 60 nM. The same measure, in the same setting: next, `CC(C)(CC(=O)N[C@@H]1CCc2ccccc2N(Cc2ccc(-c3ccccc3-c3nn[nH]n3)cc2)C1=O)NC[C@H](O)c1ccccc1`: 1000 nM. Regarding `CC(C)(CC(=O)N[C@@H]1CCc2ccccc2N(Cc2ccc(-c3ccccc3-c3nn[nH]n3)cc2)C1=O)NCCO`, the EC50 was 30 nM. On the same count and under the same terms, next, `C[C@@H](F)CNC(C)(C)CC(=O)N[C@@H]1CCc2ccccc2N(Cc2ccc(-c3ccccc3-c3nn[nH]n3)cc2)C1=O`: 90 nM.

With `CC(C)(N)C(=O)N[C@@H]1CCc2ccccc2N(Cc2ccc(-c3ccccc3-c3nn[nH]n3)cc2)C1=O`, the EC50 was found to be 30 nM.

Turning to `C[C@H](O)CNC(C)(C)C(=O)N[C@@H]1CCc2ccccc2N(Cc2ccc(-c3ccccc3-c3nn[nH]n3)cc2)C1=O`, the EC50 was 700 nM. Take `CC(C)[C@H](O)CNC(C)(C)CC(=O)N[C@@H]1CCc2ccccc2N(Cc2ccc(-c3ccccc3-c3nn[nH]n3)cc2)C1=O`: the EC50 was 1000 nM.
